Measured values from patent US5486512A, “Quinazoline derivatives as acetylcholinesterase inhibitors” (priority 1994, dated 1996).
Where two headings read alike, the source gives them in different places.

What was measured:
Format in all cases: biochemical
[1] = biological target: T1, Human Red Blood Cell AChE (Homo sapiens, UniProt P22303); assay: Inhibition of human red blood cell acetylcholinesterase in vitro (radiometric assay of Johnson and Russell, modified)
T1 construct: from tissue; host or cells: human red blood cells
Description: (§1) The in vitro data was obtained according to the radiometric assay of C. D. Johnson and R. L. Russell described in Anal. Biochem., 64:229-238 (1975) and modified as described by M. R. Emmerling and H. M. Sobkowicz in Hearings Research, 32:137-146 (1988); the rat brain homogenate acetylcholinesterase inhibition data were obtained by the Ellman assay, described by G. L. Ellman, D. Courtney, V. Andres, and R. M. Feathersome, described in Biochem. Pharmacol. 7:88-95 (1961), and modified as described by M. J. Marks, D. M. Patinkin, L. D. Artman, J. B. Busch, and A. C. Collins in Pharmacol. Biochem. and Behav.15:271-279 (1981), which references are incorporated herein.

Electric Eel AChE = Electric Eel AChE (Electrophorus electricus, UniProt O42275); assay: Inhibition of electric eel acetylcholinesterase in vitro
Description: as §1

[2] = biological target: T2, Rat Brain Homogenate AChE (Rattus norvegicus, UniProt P37136); assay: Inhibition of rat brain homogenate acetylcholinesterase (Ellman assay, modified); conditions: Table I
T2 construct: rat brain homogenate acetylcholinesterase; from tissue; host or cells: rat brain homogenate
Description: as §1

[3] = Table II, human red blood cell AChE, read-out: IC50 Human AChE
[4] = Table III, electric eel AChE, read-out: IC50 Eel AChE
[5] = Table I, read-out: Inhibition of Acetylcholinesterase, Human Red Blood Cell AChE
[6] = Table I, read-out: Inhibition of Acetylcholinesterase, Electric Eel AChE

Electric Eel AChE, sequence (O42275 24-633): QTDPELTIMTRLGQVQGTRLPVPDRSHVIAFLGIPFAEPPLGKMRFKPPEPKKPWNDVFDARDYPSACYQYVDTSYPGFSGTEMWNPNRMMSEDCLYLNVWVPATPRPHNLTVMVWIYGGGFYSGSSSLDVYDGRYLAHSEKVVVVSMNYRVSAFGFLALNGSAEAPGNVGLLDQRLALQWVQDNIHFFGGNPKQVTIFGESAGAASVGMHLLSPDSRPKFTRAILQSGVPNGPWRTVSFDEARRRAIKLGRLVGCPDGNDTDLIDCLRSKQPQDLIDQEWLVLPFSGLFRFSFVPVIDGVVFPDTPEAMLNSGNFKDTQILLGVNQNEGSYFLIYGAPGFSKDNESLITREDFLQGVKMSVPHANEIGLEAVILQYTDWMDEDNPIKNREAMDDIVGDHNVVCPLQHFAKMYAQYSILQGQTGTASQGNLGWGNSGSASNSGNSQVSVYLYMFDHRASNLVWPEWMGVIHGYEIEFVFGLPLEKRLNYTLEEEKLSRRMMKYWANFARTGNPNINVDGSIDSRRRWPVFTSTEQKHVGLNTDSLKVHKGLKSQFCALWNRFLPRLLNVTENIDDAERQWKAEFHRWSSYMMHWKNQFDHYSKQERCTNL
T2 sequence (P37136 32-614): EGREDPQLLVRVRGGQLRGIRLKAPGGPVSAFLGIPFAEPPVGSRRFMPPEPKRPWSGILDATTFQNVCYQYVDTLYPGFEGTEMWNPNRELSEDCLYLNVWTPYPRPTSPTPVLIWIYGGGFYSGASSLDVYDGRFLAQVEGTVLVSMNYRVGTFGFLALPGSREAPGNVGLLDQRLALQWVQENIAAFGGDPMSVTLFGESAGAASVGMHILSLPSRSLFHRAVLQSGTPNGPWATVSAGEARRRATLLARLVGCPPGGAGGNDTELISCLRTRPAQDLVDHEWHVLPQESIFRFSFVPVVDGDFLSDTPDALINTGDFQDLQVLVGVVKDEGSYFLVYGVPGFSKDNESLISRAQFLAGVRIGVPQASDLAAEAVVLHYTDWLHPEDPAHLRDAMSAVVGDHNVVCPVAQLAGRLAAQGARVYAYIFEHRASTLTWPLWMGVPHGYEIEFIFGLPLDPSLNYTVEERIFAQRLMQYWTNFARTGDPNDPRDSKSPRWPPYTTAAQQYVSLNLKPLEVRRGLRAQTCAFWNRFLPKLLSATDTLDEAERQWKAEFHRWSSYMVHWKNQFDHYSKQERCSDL
T1 sequence (P22303 other isoform, or with tags, fused parts or gaps): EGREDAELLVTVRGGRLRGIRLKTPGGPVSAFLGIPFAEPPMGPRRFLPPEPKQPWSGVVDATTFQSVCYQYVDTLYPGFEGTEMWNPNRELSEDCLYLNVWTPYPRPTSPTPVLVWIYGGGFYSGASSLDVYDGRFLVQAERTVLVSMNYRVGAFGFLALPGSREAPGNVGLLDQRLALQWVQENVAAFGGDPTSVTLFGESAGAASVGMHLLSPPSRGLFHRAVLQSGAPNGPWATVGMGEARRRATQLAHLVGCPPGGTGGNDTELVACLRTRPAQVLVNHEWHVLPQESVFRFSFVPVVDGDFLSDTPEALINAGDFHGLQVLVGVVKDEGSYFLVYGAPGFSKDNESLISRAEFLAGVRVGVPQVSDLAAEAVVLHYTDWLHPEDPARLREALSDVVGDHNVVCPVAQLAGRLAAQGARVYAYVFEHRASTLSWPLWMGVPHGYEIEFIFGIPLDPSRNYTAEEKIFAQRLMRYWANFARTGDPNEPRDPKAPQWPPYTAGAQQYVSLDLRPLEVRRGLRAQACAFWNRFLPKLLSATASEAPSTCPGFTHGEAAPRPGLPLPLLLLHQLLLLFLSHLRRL

Clc1cc(Cl)c2c(c1)N=C1C3CC4CC(C3)CC(C4)N1C2
IC50 [1, 3]: 0.06 µM

Clc1cc(Cl)c2c(c1)N=C1C3CCC(C3)N1C2 (stereo not drawn)
IC50 [1, 3]: 0.05 µM

Clc1cc(Cl)c2c(c1)N=C1CCC(c3ccccc3)(c3ccccc3)CN1C2
IC50 [1, 3]: 0.063 µM

CC1(C)CC2=Nc3cc(Cl)cc(Cl)c3CN2CC(C)(C)C1
IC50 [1, 3]: 2 µM

Clc1cc(Cl)c2c(c1)N=C1C3CCCC(C3)N1C2 (stereo not drawn)
IC50 [1, 3]: 1 µM

Clc1cc(Cl)c2c(c1)N=C1CCCN1C2
IC50 [1, 3]: 0.2 µM

Clc1cc(Cl)c2c(c1)N=C1CCCCN1C2
IC50 [1, 3]: 0.06 µM

O=c1c2c(Cl)cc(Cl)cc2nc2n1CCCCC2
IC50 [1, 3]: 63 µM

c1ccc2c(c1)CN1CCCC1=N2
IC50 (Electric Eel AChE; [4]): 1.6 µM

C1=CC2=Nc3ccccc3CN2C=C1
IC50 (Electric Eel AChE; [4]): 1.6 µM

N=c1c2ccccc2nc2n1CCCC2
IC50 (Electric Eel AChE; [4]): 1 µM

N=c1c2ccccc2nc2n1CCCCC2
IC50 (Electric Eel AChE; [4]): 2 µM

FC(F)(F)c1ccc2c(c1)N=C1CCCCCN1C2
IC50 (Electric Eel AChE; [4]): 1 µM

c1ccc(C2(c3ccccc3)CCC3=Nc4ccccc4CN3C2)cc1
IC50 (Electric Eel AChE; [4]): 0.37 µM

c1ccc2c(c1)CN1CCCCCCC1=N2
IC50 (Electric Eel AChE; [4]): 4.3 µM

c1ccc2c(c1)CN1CCCCCCCC1=N2
IC50 (Electric Eel AChE; [4]): 4 µM

c1ccc(C2CC3=Nc4ccccc4CN3C2)cc1 (stereo not drawn)
IC50 (Electric Eel AChE; [4]): 3.1 µM

Clc1ccc2c(c1)N=C1CC3CCC(C3)N1C2 (racemic)
IC50 [1, 3]: 0.92 µM

Clc1ccc2c(c1Cl)CN1CCCCCC1=N2 [1,2-DiCl, H2, 1,2-dichloro-6,7,8,9,10,12-hexahydroazepino[2,1-b]quinazoline]
IC50 [1, 5]: 3.16 µM

Cc1c(Cl)cc2c(c1Cl)CN1CCCCCC1=N2 [1,3-DiCl, 2-Me, H2, 1,3-dichloro-2-methyl-6,7,8,9,10,12-hexahydroazepino[2,1-b]quinazoline]
IC50 [1, 5]: 1 µM

Clc1cc(Cl)c2c(c1)N=C1CCCCCN1C2 [1,3-DiCl, H2, 1,3-dichloro-6,7,8,9,10,12-hexahydroazepino[2,1-b]quinazoline]
IC50 [1, 5]: 0.04 µM
IC50 [2]: 0.172 µM
IC50 (Electric Eel AChE; [6]): 0.158 µM

Clc1ccc(Cl)c2c1CN1CCCCCC1=N2 [1,4-DiCl, H2, 1,4-dichloro-6,7,8,9,10,12-hexahydroazepino[2,1-b]quinazoline]
IC50 [1, 5]: 0.631 µM
IC50 [2]: 16.4 µM
IC50 (Electric Eel AChE; [6]): 0.1 µM

Cc1c(Cl)ccc2c1CN1CCCCCC1=N2 [1-CH3,2-Cl, H2, 2-chloro-1-methyl-6,7,8,9,10,12-hexahydroazepino[2,1-b]quinazoline]
IC50 [1, 5]: 3.98 µM

Clc1cccc2c1CN1CCCCCC1=N2 [1-Cl, H2, 1-chloro-6,7,8,9,10,12-hexahydroazepino[2,1-b]quinazoline]
IC50 [1, 5]: 1.7 µM

Fc1cccc2c1CN1CCCCCC1=N2 [1-F, H2, 1-fluoro-6,7,8,9,10,12-hexahydroazepino[2,1-b]quinazoline]
IC50 [1, 5]: 1.9 µM

Clc1cc2c(cc1Cl)N=C1CCCCCN1C2 [2,3-DiCl, H2, 2,3-dichloro-6,7,8,9,10,12-hexahydroazepino[2,1-b]quinazoline]
IC50 [1, 5]: 2.5 µM
IC50 [2]: 17.9 µM
IC50 (Electric Eel AChE; [6]): 0.398 µM

COc1cc2c(cc1OC)N=C1CCCCCN1C2 [2,3-DiOCH3, H2, 2,3-dimethoxy-6,7,8,9,10,12-hexahydroazepino[2,1-b]quinazoline]
IC50 [1, 5]: 9 µM
IC50 (Electric Eel AChE; [6]): 0.398 µM

Cc1cc(C)c2c(c1)CN1CCCCCC1=N2 [2,4-DiCH3, H2, 2,4-dimethyl-6,7,8,9,10,12-hexahydroazepino[2,1-b]quinazoline]
IC50 [1, 5]: 0.9 µM

Clc1cc(Cl)c2c(c1)CN1CCCCCC1=N2 [2,4-DiCl, H2, 2,4-dichloro-6,7,8,9,10,12-hexahydroazepino[2,1-b]quinazoline]
IC50 [1, 5]: 0.063 µM
IC50 [2]: 3.81 µM
IC50 (Electric Eel AChE; [6]): 0.25 µM

CCc1ccc2c(c1)CN1CCCCCC1=N2 [2-C2 H5, H2, 2-ethyl-6,7,8,9,10,12-hexahydroazepino[2,1-b]quinazoline]
IC50 [1, 5]: 2.5 µM
IC50 (Electric Eel AChE; [6]): 1 µM

Cc1cc(Cl)c2c(c1)CN1CCCCCC1=N2 [2-CH3,4-Cl, H2, 4-chloro-2-methyl-6,7,8,9,10,12-hexahydroazepino[2,1-b]quinazoline]
IC50 [1, 5]: 0.631 µM

Cc1ccc2c(c1)CN1CCCCCC1=N2 [2-CH3, H2, 2-methyl-6,7,8,9,10,12-hexahydroazepino[2,1-b]quinazoline]
IC50 [1, 5]: 1.8 µM

N#Cc1ccc2c(c1)CN1CCCCCC1=N2 [2-CN, H2]
IC50 [1, 5]: 6.7 µM
IC50 (Electric Eel AChE; [6]): 1.5 µM

Clc1ccc2c(c1)CN1CCCCCC1=N2 [2-Cl, H2, 2-chloro-6,7,8,9,10,12-hexahydroazepino[2,1-b]quinazoline]
IC50 [1, 5]: 0.5 µM

Fc1ccc2c(c1)CN1CCCCCC1=N2 [2-F, H2, 2-fluoro-6,7,8,9,10,12-hexahydroazepino[2,1-b]quinazoline]
IC50 [1, 5]: 2 µM

Clc1ccc2c(c1Cl)N=C1CCCCCN1C2 [3,4-DiCl, H2, 3,4-dichloro-6,7,8,9,10,12-hexahydroazepino[2,1-b]quinazoline]
IC50 [1, 5]: 1.5 µM
IC50 [2]: 23.8 µM
IC50 (Electric Eel AChE; [6]): 0.398 µM

Cc1ccc2c(c1)N=C1CCCCCN1C2 [3-CH3, H2, 3-methyl-6,7,8,9,10,12-hexahydroazepino[2,1-b]quinazoline]
IC50 [1, 5]: 0.61 µM

Clc1ccc2c(c1)N=C1CCCCCN1C2 [3-Cl, H2, 3-chloro-6,7,8,9,10,12-hexahydroazepino[2,1-b]quinazoline]
IC50 [2]: 1.9 µM
IC50 (Electric Eel AChE; [6]): 0.2 µM

N=c1c2ccc(Cl)cc2nc2n1CCCCC2 [3-Cl, NH, 3-chloro-7,8,9,10-tetrahydroazepino[2,1-b]quinazolin-12(6H)-imine]
IC50 (Electric Eel AChE; [6]): 0.5 µM

O=c1c2ccc(Cl)cc2nc2n1CCCCC2 [3-Cl, O, 3-chloro-7,8,9,10-tetrahydroazepino[2,1-b]quinazolin-12(6H)-one]
IC50 (Electric Eel AChE; [6]): 21 µM

S=c1c2ccc(Cl)cc2nc2n1CCCCC2 [3-Cl, S, 3-Chloro-7,8,9,10-tetrahydroazepino[2,1-b]quinazolin-12(6H)-thione]
IC50 (Electric Eel AChE; [6]): 15.8 µM

Fc1ccc2c(c1)N=C1CCCCCN1C2 [3-F, H2, 3-fluoro-6,7,8,9,10,12-hexahydroazepino[2,1-b]quinazoline]
IC50 [1, 5]: 2.87 µM
IC50 (Electric Eel AChE; [6]): 0.6 µM

COc1ccc2c(c1)N=C1CCCCCN1C2 [3-OCH3, H2]
IC50 [1, 5]: 2.8 µM

Cc1cccc2c1N=C1CCCCCN1C2 [4-CH3, H2, 4-methyl-6,7,8,9,10,12-hexahydroazepino[2,1-b]quinazoline]
IC50 [1, 5]: 6 µM

Clc1cccc2c1N=C1CCCCCN1C2 [4-Cl, H2, 4-chloro-6,7,8,9,10,12-hexahydroazepino[2,1-b]quinazoline]
IC50 [1, 5]: 1.5 µM
IC50 (Electric Eel AChE; [6]): 0.631 µM

Fc1cccc2c1N=C1CCCCCN1C2 [4-F, H2, 4-fluoro-6,7,8,9,10,12-hexahydroazepino[2,1-b]quinazoline]
IC50 [1, 5]: 1.6 µM
IC50 (Electric Eel AChE; [6]): 1.5 µM

c1ccc2c(c1)CN1CCCCCC1=N2 [H, H2]
IC50 [1, 5]: 1.9 µM
IC50 [2]: 16 µM
IC50 (Electric Eel AChE; [6]): 0.61 µM
